From patent US10772903B2, “Targeting fungi in combination with cancer therapy” (Cedars-Sinai Medical Center, priority 2016, dated 2020)

Legend:
E0771 mammary tumors = assay: Orthotopic E0771 mammary tumors, tumor growth after localized irradiation with or without antibiotics/antifungals; assay type: in vivo, mice; details: for tumor response to RT: agent for one week prior to localized kV irradiation (16 Gy), FIG. 26, 27A
Description: Orthotopic E0771 mammary tumors were grown to a median diameter of 1.0 cm and mice were then started with either antibiotics (Abx) or antifungals (AF) for one week prior to being treated with localized kV irradiation (16 Gy). Total tumor burden/animal assessed every 3 days until endpoint. […] Antibiotics (Abx) were ampicillin, imipenem, cilastin and vancomycin. Fluconazole was the antifungals (AF) used for these experiments. Significance was determined by two-way ANOVA. Kaplan-Meier survival curves are also shown with significance determined by the Log-Rank test (FIG. 26G, FIG. 26H). One of five experiments is shown. […] For all figures significance is shown as *p<0.05, **p<0.01, ***p<0.001.
Orthotopic E0771 mammary tumors were grown as described above and then treated with either the antifungal (5-fluorocytosine) one week prior to treatment with localized kV irradiation (16 Gy) (n=8 per group, one of two repeats shown) (FIG. 27A).
For experiments assessing antifungal treatment and the efficacy of radiation therapy (FIGS. 2 and 13), mice bearing syngeneic murine tumors (derived from the E0771 cell line) were treated for one week with fluconazole by putting fluconazole in their drinking water. When tumors reached approximately 1 cm in size they were irradiated with 16 Gray of focal radiation from a Cesium-137 source. The tumors were then followed for tumor growth until they reached approximately 2 cm in size at which time they were harvested for analysis.
For experiments assessing the anti-fungal combination treatment (FIG. 14), in addition to just fluconazole the mice were treated with a cocktail of antifungals (Fluconazole, 5-Fluorocytosine and Amphotericin B) for one week prior to RT.

CD4+ T cells = assay: Cytokine expression of CD4+ T cells from tumors; assay type: in vivo, mice; details: FIG. 4
Description: Tumors were harvested from mice at various time points and analyzed by flow cytometry (FACS) (FIG. 22A), immunohistochemistry (IHC) (FIG. 22B) and qPCR (FIG. 22C). FIG. 22A) For FACS, tumors were enzymatically dissociated with and labeled with fluorescently tagged antibodies and then placed on a flow cytometer. FIG. 22B) For IHC, tumor fragments were fixed in formalin and embedded in paraffin. 5 micron sections were then cut and stained with various antibodies and developed with DAB prior to whole-slide scanning on the Aperio system (Leica Biosystems). FIG. 22C) qPCR was performed on flow sorted immune cells (e.g. CD4+ T cells or macrophages) and then subjected to qPCR with a panel of primers.
Tumors are harvested and evaluated at three endpoints: 1, 2, 4 and 10 days following RT. […]

intratumoral leukocytes = details: FIG. 3; with RT; fluconazole added to RT and antibiotics
Description: Irradiated E0771 mammary tumors were harvested from mice at one week following RT. Tumors were dissociated using the tumor dissociation kit (Miltenyi Biotech) and CD45+ cells were then isolated with CD45+ MacsBeads. The resulting CD45+ cells were then stained with fluorescent antibodies and run on a flow cytometer. Total leukocytes (CD45+ Cells), CD4+ T cells, CD8+ T cells, M1 macrophages (CD11b+Ly6C+) and M1 macrophages (CD11b+F4/80′) were assessed following antibiotic (FIG. 28A-FIG. 28D) and antifungal (FIG. 28E-FIG. 28H) treatment. Antibiotics (Abx) were ampicillin, imipenem, cilastin and vancomycin. Fluconazole was the antifungal (AF) used for these experiments. n=5-7 per group and represent one of five independent experiments.

tumors = assay: Tumor immunohistochemistry: proliferation, cell death, vessels; assay type: in vivo, mice; details: FIG. 5
Description: Orthotopic E0771 mammary tumors were grown to a median diameter of 1.0 cm and mice were then started with either antibiotics (Abx) or antifungals (AF) for one week prior to being treated with localized kV irradiation (16 Gy). Total tumor burden/animal assessed every 3 days until endpoint. […] Antibiotics (Abx) were ampicillin, imipenem, cilastin and vancomycin. Fluconazole was the antifungals (AF) used for these experiments. Significance was determined by two-way ANOVA. Kaplan-Meier survival curves are also shown with significance determined by the Log-Rank test (FIG. 26G, FIG. 26H). One of five experiments is shown. Tumors from mice were harvested at one week following RT and stained for bromodeoxyuridine (BrdU) and cleaved caspase 3 (CC3) to assess for proliferation and cell death respectively (FIG. 26I, FIG. 26J). Slides were scanned using the Aperio slide scanner and analyzed using the ScanScope nuclear algorithm included in the Aperio software package. Significance was determined by two-way ANOVA. For all figures significance is shown as *p<0.05, **p<0.01, ***p<0.001.

| Structure (SMILES) | tumor response to RT (E0771 mammary tumors) | IFN-γ expression by CD4+ T cells (CD4+ T cells) | IL-4 expression by CD4+ T cells (CD4+ T cells) | efficacy of RT (E0771 mammary tumors; FIG. 12A, RT 16 Gy) | CD4+ T cells (intratumoral leukocytes) | CD8+ T cells (intratumoral leukocytes) | tumor apoptosis (tumors) | tumor cell division (tumors) |
| --- | --- | --- | --- | --- | --- | --- | --- | --- |
| Nc1nc(=O)[nH]cc1F [5-fluorocytosine] | similarly enhance the efficacy of RT |  |  |  |  |  |  |  |
| OC(Cn1cncn1)(Cn1cncn1)c1ccc(F)cc1F [Fluconazole] | enhance | more | less | increases the efficacy of RT | reduces the increase in CD4+ T cell | prevents the reduction of CD8+ T cells | opposite | opposite |
